Data: ChEMBL document CHEMBL1127436, “[(3-Pyridylalkyl)piperidylidene]benzocycloheptapyridine derivatives as dual antagonists of PAF and histamine” (J Med Chem, 1994)

species: Oryctolagus cuniculus; assay: Concentration required to inhibit PAF-induced maximum aggregation; type: functional; details: not given

Structure (SMILES)	IC50 [nM]
COc1ccc(CN2CCC(=C3c4ccc(Cl)cc4CCc4cccnc43)CC2)cn1	37000
COc1ncccc1CN1CCC(=C2c3ccc(Cl)cc3CCc3cccnc32)CC1	6000
Cc1cncc(CN2CCC(=C3c4ccc(Cl)cc4CCc4cccnc43)CC2)c1 [RUPATADINE]	3700
O=C(c1cccnc1O)N1CCC(=C2c3ccc(Cl)cc3CCc3cccnc32)CC1	> 100000
CC(c1cccnc1)N1CCC(=C2c3ccc(Cl)cc3CCc3cccnc32)CC1.Cl (stereo not given)	8200
COc1ccc(C(=O)N2CCC(=C3c4ccc(Cl)cc4CCc4cccnc43)CC2)cn1	> 100000
O=C(c1ccc(O)nc1)N1CCC(=C2c3ccc(Cl)cc3CCc3cccnc32)CC1	1500
O=C(O)c1cncc(CN2CCC(=C3c4ccc(Cl)cc4CCc4cccnc43)CC2)c1	85000
Cl.Clc1ccc2c(c1)CCc1cccnc1C2=C1CCN(CCc2cccnc2)CC1	34000
O=C(c1ccc(Cl)nc1)N1CCC(=C2c3ccc(Cl)cc3CCc3cccnc32)CC1	> 100000
Cc1ncccc1CN1CCC(=C2c3ccc(Cl)cc3CCc3cccnc32)CC1	13000
CC(=O)N1CCC(=C2c3ccc(Cl)cc3CCc3cccnc32)CC1 [SCH-37370]	840
Clc1ccc2c(c1)CCc1cccnc1C2=C1CCN(Cc2ccc(Cl)nc2)CC1	> 100000
COC(=O)c1cncc(CN2CCC(=C3c4ccc(Cl)cc4CCc4cccnc43)CC2)c1.Cl	> 100000
Cc1ccncc1CN1CCC(=C2c3ccc(Cl)cc3CCc3cccnc32)CC1	15000

test system: Rattus norvegicus; assay: Tested at 10 (mg/kg) intravenous dose for percent inhibition of the arterial blood pressure in normotensive rats caused by histamine; type: functional; details: not given

Structure (SMILES)	Inhibition [%]
Cc1cncc(CN2CCC(=C3c4ccc(Cl)cc4CCc4cccnc43)CC2)c1 [RUPATADINE]	89
O=C(c1ccc(O)nc1)N1CCC(=C2c3ccc(Cl)cc3CCc3cccnc32)CC1	67
Cl.Clc1ccc2c(c1)CCc1cccnc1C2=C1CCN(CCc2cccnc2)CC1	95.4
CC(=O)N1CCC(=C2c3ccc(Cl)cc3CCc3cccnc32)CC1 [SCH-37370]	55.1

species: Cavia porcellus; assay: Tested for concentration required to inhibit histamine -induced ileum contraction; type: functional; details: not given

Structure (SMILES)	IC50 [nM]
O=C(c1ccc(Cl)nc1)N1CCC(=C2c3ccc(Cl)cc3CCc3cccnc32)CC1	64

species: Mus musculus; assay: Dose required to inhibit PAF-induced mortality; type: functional; details: read-out: ID50 (the source's name)

Structure (SMILES)	ED50 [mg/kg]
COc1ccc(CN2CCC(=C3c4ccc(Cl)cc4CCc4cccnc43)CC2)cn1	< 30
O=C(c1cccnc1O)N1CCC(=C2c3ccc(Cl)cc3CCc3cccnc32)CC1	> 30
CC(c1cccnc1)N1CCC(=C2c3ccc(Cl)cc3CCc3cccnc32)CC1.Cl (stereo not given)	> 30
COc1ccc(C(=O)N2CCC(=C3c4ccc(Cl)cc4CCc4cccnc43)CC2)cn1	30
O=C(c1ccc(O)nc1)N1CCC(=C2c3ccc(Cl)cc3CCc3cccnc32)CC1	> 3
O=C(O)c1cncc(CN2CCC(=C3c4ccc(Cl)cc4CCc4cccnc43)CC2)c1	> 30
Cl.Clc1ccc2c(c1)CCc1cccnc1C2=C1CCN(CCc2cccnc2)CC1	> 30
O=C(c1ccc(Cl)nc1)N1CCC(=C2c3ccc(Cl)cc3CCc3cccnc32)CC1	20
Clc1ccc2c(c1)CCc1cccnc1C2=C1CCN(Cc2ccc(Cl)nc2)CC1	20
Cc1ccncc1CN1CCC(=C2c3ccc(Cl)cc3CCc3cccnc32)CC1	10

species: Rattus norvegicus; assay: Tested for dose required to inhibit antigen induced increased permeability; type: functional; details: read-out: ID50 (the source's name)

Structure (SMILES)	ED50 [mg/kg]
Cc1cncc(CN2CCC(=C3c4ccc(Cl)cc4CCc4cccnc43)CC2)c1 [RUPATADINE]	1.2
CC(=O)N1CCC(=C2c3ccc(Cl)cc3CCc3cccnc32)CC1 [SCH-37370]	10

test system: Mus musculus; assay: Antiallergic activity was evaluated using active anaphylactic test after po administration of 30 (mg/kg) in mice; type: functional; details: not given

Structure (SMILES)	Inhibition [%]
Cc1ncccc1CN1CCC(=C2c3ccc(Cl)cc3CCc3cccnc32)CC1	50
Cc1ccncc1CN1CCC(=C2c3ccc(Cl)cc3CCc3cccnc32)CC1	56

species: Rattus norvegicus; assay: Tested for dose required to inhibit endotoxin induced mortality in rats; type: functional; details: read-out: ID50 (the source's name)

Structure (SMILES)	ED50 [mg/kg]
Cc1cncc(CN2CCC(=C3c4ccc(Cl)cc4CCc4cccnc43)CC2)c1 [RUPATADINE]	0.5
CC(=O)N1CCC(=C2c3ccc(Cl)cc3CCc3cccnc32)CC1 [SCH-37370]	> 5

species: Mus musculus; assay: Tested for dose required to inhibit endotoxin induced mortality in mice; type: functional; details: read-out: ID50 (the source's name)

Structure (SMILES)	ED50 [mg/kg]
Cc1cncc(CN2CCC(=C3c4ccc(Cl)cc4CCc4cccnc43)CC2)c1 [RUPATADINE]	1.2
CC(=O)N1CCC(=C2c3ccc(Cl)cc3CCc3cccnc32)CC1 [SCH-37370]	> 10

test system: Mus musculus; assay: Antiallergic activity was evaluated using active anaphylactic test after po administration of 10 (mg/kg) in mice; type: functional; details: not given

Structure (SMILES)	Inhibition [%]
O=C(c1cccnc1O)N1CCC(=C2c3ccc(Cl)cc3CCc3cccnc32)CC1	56

species: Cavia porcellus; assay: Tested for concentration required to inhibit H1 histamine -induced guinea pig ileum contraction; type: functional; details: not given

Structure (SMILES)	IC50 [nM]
COc1ccc(CN2CCC(=C3c4ccc(Cl)cc4CCc4cccnc43)CC2)cn1	380
COc1ccc(C(=O)N2CCC(=C3c4ccc(Cl)cc4CCc4cccnc43)CC2)cn1	34
O=C(c1ccc(O)nc1)N1CCC(=C2c3ccc(Cl)cc3CCc3cccnc32)CC1	390
O=C(O)c1cncc(CN2CCC(=C3c4ccc(Cl)cc4CCc4cccnc43)CC2)c1	350
Cl.Clc1ccc2c(c1)CCc1cccnc1C2=C1CCN(CCc2cccnc2)CC1	360
Cc1ncccc1CN1CCC(=C2c3ccc(Cl)cc3CCc3cccnc32)CC1	270
CC(=O)N1CCC(=C2c3ccc(Cl)cc3CCc3cccnc32)CC1 [SCH-37370]	100
COC(=O)c1cncc(CN2CCC(=C3c4ccc(Cl)cc4CCc4cccnc43)CC2)c1.Cl	190
Cc1ccncc1CN1CCC(=C2c3ccc(Cl)cc3CCc3cccnc32)CC1	35

test system: Mus musculus; assay: Tested for effect on central nervous system in mice at 100 mg/kg peroral dose for spontaneous motor activity (SMA) expressed as percentage relative to control; type: functional; details: route oral

Structure (SMILES)	Relative to control [%]
Cc1cncc(CN2CCC(=C3c4ccc(Cl)cc4CCc4cccnc43)CC2)c1 [RUPATADINE]	97

test system: Mus musculus; assay: Tested for effect on central nervous system in mice at 100 mg/kg peroral dose barbiturate-sleeping time (BST); type: functional; details: route oral

Structure (SMILES)	X [min]
Cc1cncc(CN2CCC(=C3c4ccc(Cl)cc4CCc4cccnc43)CC2)c1 [RUPATADINE]	138
CC(=O)N1CCC(=C2c3ccc(Cl)cc3CCc3cccnc32)CC1 [SCH-37370]	296

test system: Rattus norvegicus; assay: Intravenous dose required to reduce the lowering of the arterial blood pressure caused by PAF; type: functional; details: not given

Structure (SMILES)	ID50 [mg/kg]
COc1ccc(C(=O)N2CCC(=C3c4ccc(Cl)cc4CCc4cccnc43)CC2)cn1	> 5

same assay, conditions: Rattus norvegicus, Arterial blood, iv; read-out: ID50 (the source's name)

Structure (SMILES)	ED50 [mg/kg]
COc1ncccc1CN1CCC(=C2c3ccc(Cl)cc3CCc3cccnc32)CC1	> 5
CC(c1cccnc1)N1CCC(=C2c3ccc(Cl)cc3CCc3cccnc32)CC1.Cl (stereo not given)	> 5
O=C(c1ccc(O)nc1)N1CCC(=C2c3ccc(Cl)cc3CCc3cccnc32)CC1	1.5
O=C(O)c1cncc(CN2CCC(=C3c4ccc(Cl)cc4CCc4cccnc43)CC2)c1	> 5
Cl.Clc1ccc2c(c1)CCc1cccnc1C2=C1CCN(CCc2cccnc2)CC1	> 5
O=C(c1ccc(Cl)nc1)N1CCC(=C2c3ccc(Cl)cc3CCc3cccnc32)CC1	> 1
COC(=O)c1cncc(CN2CCC(=C3c4ccc(Cl)cc4CCc4cccnc43)CC2)c1.Cl	> 5

test system: Mus musculus; assay: Antiallergic activity was evaluated using active anaphylactic test after po administration in mice; type: functional; details: read-out: ID50 (the source's name)

Structure (SMILES)	ED50 [mg/kg]
COc1ccc(CN2CCC(=C3c4ccc(Cl)cc4CCc4cccnc43)CC2)cn1	5.9
COc1ncccc1CN1CCC(=C2c3ccc(Cl)cc3CCc3cccnc32)CC1	17
Cc1cncc(CN2CCC(=C3c4ccc(Cl)cc4CCc4cccnc43)CC2)c1 [RUPATADINE]	13
CC(c1cccnc1)N1CCC(=C2c3ccc(Cl)cc3CCc3cccnc32)CC1.Cl (stereo not given)	> 30
COc1ccc(C(=O)N2CCC(=C3c4ccc(Cl)cc4CCc4cccnc43)CC2)cn1	5.5
O=C(c1ccc(O)nc1)N1CCC(=C2c3ccc(Cl)cc3CCc3cccnc32)CC1	> 30
O=C(O)c1cncc(CN2CCC(=C3c4ccc(Cl)cc4CCc4cccnc43)CC2)c1	6.5
Cl.Clc1ccc2c(c1)CCc1cccnc1C2=C1CCN(CCc2cccnc2)CC1	> 30
O=C(c1ccc(Cl)nc1)N1CCC(=C2c3ccc(Cl)cc3CCc3cccnc32)CC1	1.9
CC(=O)N1CCC(=C2c3ccc(Cl)cc3CCc3cccnc32)CC1 [SCH-37370]	19
Clc1ccc2c(c1)CCc1cccnc1C2=C1CCN(Cc2ccc(Cl)nc2)CC1	6.9
